Results from ChEMBL document CHEMBL1201862, “PubChem BioAssay data set” (2004).
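Exposure lasted 48 hours, with cells grown in 96-well plates and compounds tested at five concentrations. GI50 is the concentration that inhibits growth by half.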 Calls of active or inactive are those of the source. Cut-off read from the data, not from the text of the source: active = GI50 up to about 1.1 µM and inactive = higher.

What was measured:
Assay in all cases: inhibition of tumour cell growth, NCI panel, 48 h
OVCAR-5 = test system: OVCAR-5
BT-549 = test system: BT-549
RXF 393 = test system: RXF 393
T47D = test system: T47D
UACC-62 = test system: UACC-62
OVCAR-3 = test system: OVCAR-3
SF-268 = test system: SF-268
CCRF-CEM = test system: CCRF-CEM
EKVX = test system: EKVX
A549 = test system: A549
HL-60 = test system: HL-60
HCT-116 = test system: HCT-116
U-251 = test system: U-251
HCT-15 = test system: HCT-15
A498 = test system: A498
HOP-92 = test system: HOP-92
SW-620 = test system: SW-620
SK-MEL-2 = test system: SK-MEL-2
OVCAR-8 = test system: OVCAR-8
LOX IMVI = test system: LOX IMVI
786-0 = test system: 786-0
OVCAR-4 = test system: OVCAR-4
M14 = test system: M14
SK-OV-3 = test system: SK-OV-3
NCI-H23 = test system: NCI-H23
SK-MEL-28 = test system: SK-MEL-28
SNB-19 = test system: SNB-19
MOLT-4 = test system: MOLT-4
ACHN = test system: ACHN
SF-539 = test system: SF-539
DU-145 = test system: DU-145
SNB-75 = test system: SNB-75
UACC-257 = test system: UACC-257
SN12C = test system: SN12C
TK-10 = test system: TK-10
HOP-62 = test system: HOP-62
Malme-3M = test system: Malme-3M
IGROV-1 = test system: IGROV-1
MDA-N = test system: MDA-N
MCF7 = test system: MCF7
KM12 = test system: KM12
NCI-H460 = test system: NCI-H460
SF-295 = test system: SF-295
RPMI-8226 = test system: RPMI-8226
MDA-MB-231 = test system: MDA-MB-231
CAKI-1 = test system: CAKI-1
K562 = test system: K562
NCI/ADR-RES = test system: NCI/ADR-RES
PC-3 = test system: PC-3
NCI-H522 = test system: NCI-H522
HT-29 = test system: HT-29
MDA-MB-435 = test system: MDA-MB-435
NCI-H226 = test system: NCI-H226
HCC 2998 = test system: HCC 2998
COLO 205 = test system: COLO 205
SK-MEL-5 = test system: SK-MEL-5
UO-31 = test system: UO-31

What does the source list for `O=C(O)C1CCCN(CCc2c[nH]c3ccccc23)C1` (stereo not given)?
GI50 (OVCAR-5): > 100 µM (inactive); GI50 (BT-549): > 100 µM (inactive); GI50 (RXF 393): > 100 µM (inactive); GI50 (T47D): > 100 µM (inactive); GI50 (UACC-62): > 100 µM (inactive); GI50 (OVCAR-3): > 100 µM (inactive); GI50 (SF-268): > 100 µM (inactive); GI50 (CCRF-CEM): > 100 µM (inactive); GI50 (EKVX): > 100 µM (inactive); GI50 (A549): > 100 µM (inactive); GI50 (HL-60): > 100 µM (inactive); GI50 (HCT-116): > 100 µM (inactive); GI50 (U-251): > 100 µM (inactive); GI50 (HCT-15): > 100 µM; GI50 (A498): > 100 µM (inactive); GI50 (HOP-92): > 100 µM (inactive); GI50 (SW-620): > 100 µM (inactive); GI50 (SK-MEL-2): > 100 µM (inactive); GI50 (OVCAR-8): > 100 µM (inactive); GI50 (LOX IMVI): > 100 µM (inactive); GI50 (786-0): > 100 µM (inactive); GI50 (OVCAR-4): > 100 µM (inactive); GI50 (M14): > 100 µM (inactive); GI50 (SK-OV-3): > 100 µM (inactive); GI50 (NCI-H23): > 100 µM (inactive); GI50 (SK-MEL-28): > 100 µM (inactive); GI50 (SNB-19): > 100 µM (inactive); GI50 (MOLT-4): > 100 µM (inactive); GI50 (ACHN): > 100 µM (inactive); GI50 (SF-539): > 100 µM (inactive); GI50 (DU-145): > 100 µM (inactive); GI50 (SNB-75): > 100 µM (inactive); GI50 (UACC-257): > 100 µM (inactive); GI50 (SN12C): > 100 µM (inactive); GI50 (TK-10): > 100 µM (inactive); GI50 (HOP-62): > 100 µM (inactive); GI50 (Malme-3M): > 100 µM (inactive); GI50 (IGROV-1): > 100 µM (inactive); GI50 (MDA-N): > 100 µM (inactive); GI50 (MCF7): > 100 µM (inactive); GI50 (KM12): > 100 µM (inactive); GI50 (NCI-H460): > 100 µM (inactive); GI50 (SF-295): > 100 µM (inactive); GI50 (RPMI-8226): > 100 µM (inactive); GI50 (MDA-MB-231): > 100 µM (inactive); GI50 (CAKI-1): > 100 µM (inactive); GI50 (K562): > 100 µM (inactive); GI50 (NCI/ADR-RES): > 100 µM (inactive); GI50 (PC-3): > 100 µM (inactive); GI50 (NCI-H522): > 100 µM (inactive); GI50 (HT-29): > 100 µM (inactive); GI50 (MDA-MB-435): > 100 µM (inactive); GI50 (NCI-H226): > 100 µM (inactive); GI50 (HCC 2998): > 100 µM (inactive); GI50 (COLO 205): > 100 µM (inactive)

What does the source list for `CC1=CC(=O)/C(=C/Nc2nc(-c3cccc([N+](=O)[O-])c3)cs2)C(=O)O1`?
GI50 (OVCAR-5): > 100 µM (inactive); GI50 (BT-549): 21.9 µM (inactive); GI50 (T47D): 77.1 µM (inactive); GI50 (UACC-62): 32.5 µM (inactive); GI50 (OVCAR-3): > 100 µM (inactive); GI50 (EKVX): 39.4 µM (inactive); GI50 (A549): > 100 µM (inactive); GI50 (HL-60): 13.6 µM (inactive); GI50 (HCT-116): 37.7 µM (inactive); GI50 (U-251): 63.1 µM (inactive); GI50 (HCT-15): 23 µM; GI50 (HOP-92): > 100 µM (inactive); GI50 (SW-620): 43.4 µM (inactive); GI50 (SK-MEL-2): > 100 µM (inactive); GI50 (OVCAR-8): > 100 µM (inactive); GI50 (LOX IMVI): 39.2 µM (inactive); GI50 (786-0): 30.8 µM (inactive); GI50 (OVCAR-4): > 100 µM (inactive); GI50 (M14): 64.1 µM (inactive); GI50 (SK-OV-3): > 100 µM (inactive); GI50 (NCI-H23): 60.5 µM (inactive); GI50 (SK-MEL-28): > 100 µM (inactive); GI50 (SNB-19): > 100 µM (inactive); GI50 (ACHN): 46.2 µM (inactive); GI50 (SF-539): 69 µM (inactive); GI50 (DU-145): > 100 µM (inactive); GI50 (SNB-75): 35.9 µM (inactive); GI50 (UACC-257): > 100 µM (inactive); GI50 (SN12C): 66.5 µM (inactive); GI50 (TK-10): 1.93 µM (inactive); GI50 (HOP-62): > 100 µM (inactive); GI50 (SK-MEL-5): 54.2 µM (inactive); GI50 (IGROV-1): 38.4 µM (inactive); GI50 (MCF7): 41.6 µM (inactive); GI50 (KM12): 47.2 µM (inactive); GI50 (UO-31): 29.9 µM (inactive); GI50 (NCI-H460): > 100 µM (inactive); GI50 (SF-295): > 100 µM (inactive); GI50 (MDA-MB-231): 57.4 µM (inactive); GI50 (CAKI-1): 24.8 µM (inactive); GI50 (NCI/ADR-RES): 44.4 µM (inactive); GI50 (PC-3): > 100 µM (inactive); GI50 (HT-29): 89.9 µM (inactive); GI50 (MDA-MB-435): 75.2 µM (inactive); GI50 (NCI-H226): > 100 µM (inactive); GI50 (HCC 2998): 31.9 µM (inactive); GI50 (COLO 205): 85.7 µM (inactive)

Which GI50 (OVCAR-5) does the source give for `CC1=CCC(C(C)(C)NC(=O)c2ccccc2)C/C1=N/O` (stereo not given) here?
Its GI50 is > 100 µM (inactive).

What about the GI50 (BT-549) of the same compound?
Its GI50 is > 100 µM (inactive).

What about the GI50 (T47D) of the same compound?
Its GI50 is > 100 µM (inactive).

And the GI50 (UACC-62)?
The GI50 was > 100 µM (inactive).

What about the GI50 (OVCAR-3) of the same compound?
The GI50 was > 100 µM (inactive).

What about the GI50 (SF-268) of the same compound?
The GI50 was > 100 µM (inactive).

What about the GI50 (CCRF-CEM) of the same compound?
The GI50 was > 100 µM (inactive).

What about the GI50 (EKVX) of the same compound?
The GI50 was > 100 µM (inactive).

What about the GI50 (A549) of the same compound?
Its GI50 is > 100 µM (inactive).

What about the GI50 (HL-60) of the same compound?
The GI50 was > 100 µM (inactive).

And the GI50 (HCT-116)?
Its GI50 is > 100 µM (inactive).

And the GI50 (U-251)?
The GI50 was > 100 µM (inactive).

What about the GI50 (HCT-15) of the same compound?
The GI50 was over 100 µM.

What about the GI50 (HOP-92) of the same compound?
Its GI50 is 43.3 µM (inactive).

What about the GI50 (SW-620) of the same compound?
Its GI50 is > 100 µM (inactive).

What about the GI50 (OVCAR-8) of the same compound?
The GI50 was > 100 µM (inactive).

What about the GI50 (LOX IMVI) of the same compound?
Its GI50 is > 100 µM (inactive).

What about the GI50 (786-0) of the same compound?
Its GI50 is > 100 µM (inactive).

What about the GI50 (OVCAR-4) of the same compound?
The GI50 was > 100 µM (inactive).

And the GI50 (M14)?
Its GI50 is > 100 µM (inactive).

And the GI50 (SK-OV-3)?
Its GI50 is > 100 µM (inactive).

What about the GI50 (NCI-H23) of the same compound?
The GI50 was > 100 µM (inactive).

What about the GI50 (SK-MEL-28) of the same compound?
The GI50 was > 100 µM (inactive).

And the GI50 (SNB-19)?
The GI50 was > 100 µM (inactive).

And the GI50 (MOLT-4)?
Its GI50 is > 100 µM (inactive).

And the GI50 (SF-539)?
The GI50 was > 100 µM (inactive).

And the GI50 (DU-145)?
The GI50 was > 100 µM (inactive).

And the GI50 (SNB-75)?
The GI50 was > 100 µM (inactive).

And the GI50 (UACC-257)?
The GI50 was > 100 µM (inactive).

What about the GI50 (SN12C) of the same compound?
The GI50 was > 100 µM (inactive).

And the GI50 (TK-10)?
Its GI50 is > 100 µM (inactive).

And the GI50 (HOP-62)?
Its GI50 is > 100 µM (inactive).

What about the GI50 (SK-MEL-5) of the same compound?
The GI50 was > 100 µM (inactive).

What about the GI50 (IGROV-1) of the same compound?
The GI50 was > 100 µM (inactive).

What about the GI50 (MDA-N) of the same compound?
Its GI50 is > 100 µM (inactive).

And the GI50 (MCF7)?
Its GI50 is > 100 µM (inactive).

And the GI50 (KM12)?
Its GI50 is > 100 µM (inactive).

And the GI50 (UO-31)?
Its GI50 is > 100 µM (inactive).

What about the GI50 (NCI-H460) of the same compound?
The GI50 was > 100 µM (inactive).

And the GI50 (SF-295)?
The GI50 was > 100 µM (inactive).

And the GI50 (MDA-MB-231)?
The GI50 was > 100 µM (inactive).

What about the GI50 (K562) of the same compound?
Its GI50 is > 100 µM (inactive).

And the GI50 (PC-3)?
The GI50 was > 100 µM (inactive).

And the GI50 (NCI-H522)?
The GI50 was > 100 µM (inactive).

What about the GI50 (HT-29) of the same compound?
The GI50 was > 100 µM (inactive).

What about the GI50 (MDA-MB-435) of the same compound?
Its GI50 is > 100 µM (inactive).

What about the GI50 (HCC 2998) of the same compound?
The GI50 was > 100 µM (inactive).

And the GI50 (COLO 205)?
The GI50 was > 100 µM (inactive).
